Among the data in patent publication EP3290417A1, “2-CHLORO-N-[2-(1,3-THIAZOL-5-YL)ETHYL]-5-(5-FLUOROPYRIMIDIN-2-YL)-BENZAMIDES AND THEIR USE AS P2X7 RECEPTOR ANTAGONISTS” (AXXAM S.p.A., priority 2016, dated 2018) are IC50 and Mouse Liver Microsomal Clearance (Cli; µL/min/mg) values, retold here.

The term IC50 denotes the midpoint of a concentration-inhibition curve.

Data set [1] concerns the target T1, human P2X7 channel (Homo sapiens, UniProt Q99572).
T1 construct: expressed in transfected cells; host or cells: HEK-293
T1 sequence (Q99572 1-595): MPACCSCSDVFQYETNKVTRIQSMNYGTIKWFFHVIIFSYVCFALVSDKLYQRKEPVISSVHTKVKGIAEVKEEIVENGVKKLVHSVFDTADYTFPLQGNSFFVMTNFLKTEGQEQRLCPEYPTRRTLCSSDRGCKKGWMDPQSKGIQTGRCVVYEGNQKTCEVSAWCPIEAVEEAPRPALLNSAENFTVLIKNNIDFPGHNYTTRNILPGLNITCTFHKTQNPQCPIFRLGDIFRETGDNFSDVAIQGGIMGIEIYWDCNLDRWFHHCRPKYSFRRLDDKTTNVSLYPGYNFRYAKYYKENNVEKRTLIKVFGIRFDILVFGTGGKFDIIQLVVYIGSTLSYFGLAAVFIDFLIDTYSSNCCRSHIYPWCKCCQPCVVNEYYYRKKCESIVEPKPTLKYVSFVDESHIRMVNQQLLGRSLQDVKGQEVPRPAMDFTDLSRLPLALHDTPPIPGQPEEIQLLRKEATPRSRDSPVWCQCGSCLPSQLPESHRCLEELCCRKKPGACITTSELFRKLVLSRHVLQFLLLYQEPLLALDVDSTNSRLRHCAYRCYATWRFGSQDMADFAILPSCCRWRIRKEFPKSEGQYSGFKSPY
Put plainly: human P2X7 channel assay by automated patch-clamp (QPatch16X, whole-cell voltage clamp). It is filed as cell-based. Particulars: HEK-293 cells expressing the P2X7 channels; current evoked by 100 microM BzATP; held at -80 mV; room temperature; read-out: hP2X7 (IC50; nM). The procedure:
In order to directly monitor the block of P2X7 channel, an electrophysiological assay was developed and implemented on the QPatch16X automated electrophysiology instrument.
HEK-293 cells expressing the P2X7 channels were cultured in modified EMEM.
72 hours before experiment, 5 million cells were seeded onto T225 flasks. Just before the experiment cells were washed twice, detached from the flask with trypsin-EDTA, re-suspended in the suspension solution and placed on the QPatch 16x.
The compounds (20 mM in a 100% DMSO) stored at -20°C were prepared the day of the experiment (a first dilution 1:20 in 100% DMSO to prepare a 1 mM stock solution, then a 1 microM solution in external solution + a serial dilution 1:10).
The standard whole-cell voltage clamp experiments were performed at room temperature. For these experiments the multihole technology was used and the data were sampled at 2 KHz.
The intracellular solution contained (mM) 135 CsF, 10 NaCl, 1 EGTA, 10 HEPES, (pH 7.2 with CsOH) whereas the extracellular contained (mM) 145 NaCl, 4 KCl, 0.5 MgCl2, 1 CaCl2, 10 HEPES, 10 Glc (pH 7.4 with NaOH).
After establishment of the seal and the passage in the whole cell configuration, the cells were held at -80 mV. The P2XR7 current was evoked by applying 100 microM of BzATP alone (4 times) and then in the presence increasing concentrations of the compound under investigation (1, 10, 100 and 1000 nM).
The pre-incubation periods 5 to 8 contain increasing concentrations of the compound of interest (1, 10, 100 and 1000 nM), as illustrated in Figure.
The maximal inward current evoked by BzATP in absence or presence of increasing concentrations of the compounds under investigation was measured and normalized. The potential modulatory effect was measured as % of control and as IC50 determined fitting the dose-response curves data with the following equation: Y = 100/(1+10^(∧)((LogIC50−X)*HillSlope)) [formula] where: • X: log of concentration • Y: normalized response, 100% down to 0%, decreasing as X increases. • LogIC50: same log units as X • HillSlope: slope factor or HS, unitless
On the technique in general: In patch-clamp work, channel activity is measured electrically.

Data set [2] concerns the target T2, rat P2X7R (Rattus norvegicus, UniProt Q64663).
T2 construct: expressed in transfected cells; host or cells: HEK-293 (stably transfected)
T2 sequence (Q64663 1-595): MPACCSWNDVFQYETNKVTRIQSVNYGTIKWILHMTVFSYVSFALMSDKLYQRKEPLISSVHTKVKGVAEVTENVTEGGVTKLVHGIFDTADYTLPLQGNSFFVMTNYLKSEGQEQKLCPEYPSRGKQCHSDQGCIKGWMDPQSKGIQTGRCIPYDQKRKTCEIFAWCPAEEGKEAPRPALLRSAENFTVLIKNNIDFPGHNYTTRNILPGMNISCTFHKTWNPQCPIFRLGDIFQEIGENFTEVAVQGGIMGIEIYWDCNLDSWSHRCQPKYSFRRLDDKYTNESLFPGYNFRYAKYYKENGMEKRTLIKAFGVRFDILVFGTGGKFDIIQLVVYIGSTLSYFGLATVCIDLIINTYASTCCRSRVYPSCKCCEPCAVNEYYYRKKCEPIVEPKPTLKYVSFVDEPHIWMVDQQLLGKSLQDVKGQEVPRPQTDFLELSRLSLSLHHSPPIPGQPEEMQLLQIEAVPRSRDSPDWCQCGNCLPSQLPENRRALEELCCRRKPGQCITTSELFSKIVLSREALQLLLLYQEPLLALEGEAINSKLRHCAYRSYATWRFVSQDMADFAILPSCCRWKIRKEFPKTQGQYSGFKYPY
Put plainly: rat P2X7 Ca2+ influx assay, Screen Quest Fluo-8 No Wash Calcium Assay Kit (FLIPRTETRA). It is filed as cell-based. The conditions noted are these: HEK-293 cells stably transfected with rat P2X7R; BzATP at ~EC80; 5' incubation with compound; read-out: rP2X7 (IC50; nM). As for the experimental part: Ca^2+ influx was measured in HEK-293 cells stably transfected with the receptor using Screen Quest™ Fluo-8 No Wash Calcium Assay Kit (AAt Bioquest®). Briefly, once inside the cells, the lipophilic blocking groups of Fluo-8 are cleaved by non-specific cell esterases, resulting in a negatively-charged fluorescent-dye that stays inside cells. Its fluorescence increases upon binding to calcium. When HEK-293/P2X7 cells were stimulated with BzATP, Ca^2+ entered the cells and the fluorescence of Fluo-8 NW increaseed. The dye absorption spectrum was compatible with excitation at 488 nm by argon laser sources and its emission wavelength was in the range of 515-575 nm. […]
Compounds were tested at FLIPRTETRA according to the following method: • first injection at FLIPRTETRA of 10 µL of 3x test compound (in Tyrode's buffer 0.3 mM Ca^2+ / Mg^2+-free + DMSO 0.5% final concentration) • 5' incubation • second injection at FLIPRTETRA of 15 µL of 3x BzATP at ∼EC80 (in Tyrode's buffer 0.3 mM Ca^2+ / Mg^2+-free + BSA 0.0003% final concentration) • Fluorescence recording for 3' […]
The effect of the test compounds was measured as percent inhibition vs the reference antagonist and IC50 values were calculated accordingly.

Data set [3] in a line: metabolic stability in mouse liver microsomes. It is filed as in vitro ADME. Particulars: 1 µM test compound, 1 mg/mL protein, pH 7.4, 0-60 minutes. The procedure: In vitro evaluation of test compounds for metabolic stability using Rat or Mouse liver
Test System Rat or Mouse Liver Microsomes
• Test compound concentration: 1 µM • Time Points: 0, 5, 10, 30 and 60 minutes • Final Protein concentration: 1 mg/mL • Number of Replicates: Two • Potassium Phosphate Buffer pH 7.4 100 mM • End Point: % Remaining of Test compound, Half life, Clint • Bioanalysis by LC-MS/MS
10 mM stock solution of test compound were prepared in DMSO and dilute with water: acetonitrile (1:1) to a concentration of 1 mM. Working concentration of 100 µM were prepared by further dilution with water: acetonitrile (1: 1).
100 mL of Milli Q water will be added to K2HPO4 (1.398 g) and KH2PO4 (0.27 g) to get final pH 7.4.
Preincubation mixtures: 2.5 µL Test Cpd. + 75 µL Liver microsomes @ 3.33 mg/mL + 85 µL of 100 mM potassium phosphate buffer (Preincubate for 10 min @ 37°C)
60 min w/o cofactor: 32.5 µL of Preincubation mixture + 17.5 µL of 100 mM potassium phosphate buffer (Incubate for 60 min @ 37°C)
0 min sample: 16.25 µL of Preincubation mixture + 200 µL of acetonitrile containing internal standard + 8.75 µL of cofactor Incubation mixture 62 µL of cofactor (2.5 mM) + Remaining incubation mixture (Incubated for 60 min@ 37°C).
Sample preparation: 25 µL incubation mixture + 200 µL of acetonitrile containing internal standard + Vortex 5 min @ 1200 rpm + Centrifuge 10 min @ 4000 rpm. […]

For the compound “2-chloro-N-{2-[4-(cyclopropyl)-1,3-thiazol-5-yl]-2-(4,4-difluoropiperidin-1-yl)ethyl}-5-(5-fluoropyrimidin-2-yl)benzamide [Compound 4]”, the IC50 in data set [1] was 103 nM.

Consider `O=C(NCC(c1cnc(C(F)F)s1)N1CCOCC1)c1cc(-c2ncc(F)cn2)ccc1Cl` (racemic) [Compound 1, (±)-2-chloro-N-{2-[2-(difluoromethyl)-1,3-thiazol-5-yl]-2-(morpholin-4-yl)ethyl}-5-(5-fluoropyrimidin-2-yl)benzamide], for which the results for the concentration for half-maximal inhibition (IC50) in data set [1] and in data set [2] were 47.1 nM and 66 nM, respectively.

For the compound `O=C(NCC(c1cnc(C(F)F)s1)N1CCOCC1)c1cc(-c2ncc(F)cn2)ccc1Cl` (single isomer, unassigned; (-)) [Compound 3, (-)-2-chloro-N-{2-[2-(difluoromethyl)-1,3-thiazol-5-yl]-2-(morpholin-4-yl)ethyl}-5-(5-fluoropyrimidin-2-yl)benzamide], the half-maximal inhibitory concentration (IC50) in data set [1] turned out to be 27 nM; in data set [2], 48 nM. For `O=C(NCC(c1scnc1CO)N1CCC(F)(F)CC1)c1cc(-c2ncc(F)cn2)ccc1Cl` (centres unmarked) [Compound 5, 2-chloro-N-{2-[4-(hydroxymethyl)-1,3-thiazol-5-yl]-2-(4,4-difluoropiperidin-1-yl)ethyl}-5-(5-fluoropyrimidin-2-yl)benzamide], in data set [1], the IC50 was determined as 64.6 nM. As to `O=C(NCC(c1scnc1CF)N1CCC(F)(F)CC1)c1cc(-c2ncc(F)cn2)ccc1Cl` (centres unmarked) [Compound 6, 2-chloro-N-{2-[4-(fluoromethyl)-1,3-thiazol-5-yl]-2-(4,4-difluoropiperidin-1-yl)ethyl}-5-(5-fluoropyrimidin-2-yl)benzamide], the IC50 in data set [1] is 33.3 nM. In addition, in data set [3], the Mouse Liver Microsomal Clearance (Cli; µL/min/mg) was 47.3 µL/min/mg. Take `O=C(NCC(c1cnc(CF)s1)N1CCOCC1)c1cc(-c2ncc(F)cn2)ccc1Cl` (centres unmarked) [Compound 7, 2-chloro-N-{2-[2-(fluoromethyl)-1,3-thiazol-5-yl]-2-(morpholin-4-yl)ethyl}-5-(5-fluoropyrimidin-2-yl)benzamide]: the IC50 in data set [1] is 38.3 nM.

On to `O=C(NCC(c1cnc(CF)s1)N1CCC(F)(F)CC1)c1cc(-c2ncc(F)cn2)ccc1Cl` (centres unmarked) [Compound 8, 2-chloro-N-{2-[2-(fluoromethyl)-1,3-thiazol-5-yl]-2-(4,4-difluoropiperidin-1-yl)ethyl}-5-(5-fluoropyrimidin-2-yl)benzamide], for which the IC50 in data set [1] came to 20.3 nM. For the compound `C#Cc1ncc(C(CNC(=O)c2cc(-c3ncc(F)cn3)ccc2Cl)N2CCC(F)(F)CC2)s1` (centres unmarked) [Compound 9, 2-chloro-N-[2-(4,4-difluoropiperidin-1-yl)-2-(2-ethynyl-1,3-thiazol-5-yl)ethyl]-5-(5-fluoropyrimidin-2-yl)benzamide], the IC50 in data set [1] amounted to 39.2 nM.
